According to PubChem BioAssay (NCI):
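Method: 48-hour compound exposure of cells in 96-well plates, five concentrations, linear interpolation of endpoints. TGI is the concentration that stops growth completely.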

What was measured:
Assay in all cases: NCI tumour cell line growth inhibition, 48 h
[1] = system: SF-295 CNS
[2] = system: K-562 leukemia
[3] = system: MDA-MB-435
[4] = system: NCI-H460 lung
[5] = system: SNB-75 CNS
[6] = system: HL-60(TB) leukemia
[7] = system: RPMI-8226 leukemia
[8] = system: MDA-MB-231 breast
[9] = system: 786-0 renal
[10] = system: M14 melanoma
[11] = system: MDA-N
[12] = system: UO-31 renal
[13] = system: SK-MEL-28 melanoma
[14] = system: HOP-92 NSCLC
[15] = system: SNB-19 CNS
[16] = system: IGROV1 ovarian
[17] = system: NCI-H522 lung
[18] = system: SK-MEL-5 melanoma
[19] = system: SN12C renal
[20] = system: A549 NSCLC
[21] = system: HS 578T breast
[22] = system: CCRF-CEM leukemia
[23] = system: MOLT-4 leukemia
[24] = system: TK-10 renal
[25] = system: HCT-116 colon
[26] = system: DU-145 prostate
[27] = system: SF-268 CNS
[28] = system: CAKI-1 renal
[29] = system: OVCAR-3 ovarian
[30] = system: T-47D breast
[31] = system: UACC-257 melanoma
[32] = system: SR leukemia
[33] = system: COLO 205 colon
[34] = system: ACHN renal
[35] = system: HOP-62 NSCLC
[36] = system: NCI-H23 lung
[37] = system: EKVX NSCLC
[38] = system: MALME-3M melanoma
[39] = system: UACC-62 melanoma
[40] = system: KM12 colon
[41] = system: U251 CNS
[42] = system: OVCAR-5 ovarian
[43] = system: RXF 393 renal
[44] = system: LOX IMVI melanoma
[45] = system: SF-539 CNS
[46] = system: HCC-2998 colon
[47] = system: SK-OV-3 ovarian
[48] = system: PC-3 prostate
[49] = system: SK-MEL-2 melanoma
[50] = system: SW-620 colon
[51] = system: HCT-15 colon
[52] = system: A498 renal
[53] = system: MCF7 breast

Measured: TGI

Cc1ccc(Nc2nc(C)c(C(=O)CC(=O)C(=O)Nc3ccc(Cl)cc3)s2)cc1
> 100 µM: [1] | [2] | [3] | [4] | [5] | [6] | [7] | [8] | [9] | [10] | [11] | [12] | [13] | [14] | [15] | [16] | [17] | [18] | [19] | [20] | [21] | [22] | [23] | [24] | [25] | [26] | [27] | [28] | [29] | [30] | [31] | [32] | [33] | [34] | [35] | [36] | [37] | [38] | [39] | [40] | [41] | [42] | [43] | [44] | [45] | [46] | [47] | [48] | [49] | [50] | [51] | [52] | [53]
